Source: ChEMBL document CHEMBL4354807, “Natural Product Albiziabioside A Conjugated with Pyruvate Dehydrogenase Kinase Inhibitor Dichloroacetate To Induce Apoptosis-Ferroptosis-M2-TAMs Polarization for Combined Cancer Therapy” (J Med Chem, 2019)
pIC50: −log10 of the molar value. Calls of active or inactive are those of the source. The rule behind the calls is not given here.

What was measured:
[1] = target: [Pyruvate dehydrogenase (acetyl-transferring)] kinase isozyme 1, mitochondrial (Homo sapiens) (UniProt Q15118); experiment: Inhibition of PDK1 (unknown origin) expressed in human MCF7 cells using PDK tide as substrate measured after 90 mins in presence of ATP by ADP-Glo luminescent kinase assay
[2] = tested on: L02; experiment: Cytotoxicity against human LO2 cells assessed as reduction in cell viability after 72 hrs by MTT assay; format: cell-based; conditions: L02, 72 h
[3] = tested on: MCF7; experiment: Induction of ROS generation in human MCF7 cells assessed as ROS level at 10 uM after 24 hrs by DCFDA-fluorescence based flow cytometry (reference value: 6.57 %); format: functional
[4] = tested on: MCF7; experiment: Induction of mitochondrial dysfunction in human MCF7 cells assessed as cell population with intact mitochondrial membrane potential at 10 uM after 24 hrs by JC1 staining-based FACScalibur flow cytometry analysis (reference value: 97%); format: functional
[5] = tested on: 4T1; experiment: Anticancer activity against mouse 4T1 cells expressing PDK assessed as reduction in cell viability after 72 hrs by MTT assay; format: functional, cell-based; conditions: 4T1, 72 h
[6] = Cytotoxicity against human HBMEC cells assessed as reduction in cell viability after 72 hrs by MTT assay; format: cell-based
[7] = tested on: A-375; experiment: Anticancer activity against human A375 cells expressing PDK assessed as reduction in cell viability after 72 hrs by MTT assay; format: functional, cell-based; conditions: A-375, 72 h
[8] = tested on: MCF7; experiment: Cytotoxicity against human MCF7 cells assessed as cell death at 10 uM pretreated with Z-VAD-fmk followed by compound addition by MTT assay; format: functional, cell-based
[9] = tested on: MCF7; experiment: Induction of apoptosis in human MCF7 cells assessed as early apoptotic cells at 10 uM after 24 hrs by Annexin V-FITC/propidium iodide staining-based flow cytometric analysis (reference value: 3.53 %); format: functional
[10] = Toxicity in BALB/c nude mouse xenografted with human MCF7 cells assessed as effect on body weight at 10 mg/kg, iv administered every 2 days for 2 weeks measured after 14 days; format: organism-based; conditions: in vivo, 336 h
[11] = tested on: MCF7; experiment: Anticancer activity against human MCF7 cells overexpressing PDK assessed as reduction in cell viability after 72 hrs by MTT assay; format: functional, cell-based; conditions: MCF7, 72 h
[12] = tested on: HCT-116; experiment: Anticancer activity against human HCT116 cells expressing PDK assessed as reduction in cell viability after 72 hrs by MTT assay; format: functional, cell-based; conditions: HCT-116, 72 h
[13] = tested on: MCF7; experiment: Induction of apoptosis in human MCF7 cells assessed as viable cells at 10 uM after 24 hrs by Annexin V-FITC/propidium iodide staining-based flow cytometric analysis (reference value: 93.39 %); format: functional; conditions: MCF7, 24 h, read-out: Activity
[14] = tested on: MCF7; experiment: Induction of apoptosis in human MCF7 cells assessed as late apoptotic cells at 10 uM after 24 hrs by Annexin V-FITC/propidium iodide staining-based flow cytometric analysis (reference value: 2.97 %); format: functional
[15] = tested on: MCF7; experiment: Induction of metabolic reversal from aerobic glycolysis to oxidative phosphorylation in human MCF7 cells assessed as […] at 10 uM pretreated for 6 hrs followed by oligomycin A addition after 25 mins followed by subsequent addition of FCCP after 50 mins followed by antimycin/rotenone addition after 80 mins by seahorse XF24 extracellular flux analyzer assay; format: functional, cell-based
[16] = tested on: MCF7; experiment: Antitumor activity against human MCF7 cells xenografted in BALB/c nude mouse assessed as tumor growth inhibition at 10 mg/kg, iv administered every two days for two weeks measured after 14 days; format: functional, organism-based
[17] = tested on: MCF7; experiment: Inhibition of glycolysis in human MCF7 cells assessed as reduction in extracellular lactate level at 10 uM after 6 hrs by microplate reader assay; format: functional, cell-based
[18] = Toxicity in BALB/c nude mouse xenografted with human MCF7 cells assessed as mouse death at 10 mg/kg, iv administered every 2 days for 2 weeks measured after 14 days; format: organism-based; conditions: in vivo, 336 h
[19] = tested on: MCF7; experiment: Induction of metabolic reversal from aerobic glycolysis to oxidative phosphorylation in human MCF7 cells assessed as […] at 10 uM pretreated for 4 hrs followed by glucose addition after 25 mins by seahorse XF24 extracellular flux analyzer assay; format: functional, cell-based
[20] = tested on: MCF7; experiment: Induction of metabolic reversal from aerobic glycolysis to oxidative phosphorylation in human MCF7 cells assessed as decrease in extracellular acidification rate at 10 uM pretreated for 4 hrs followed by glucose addition after 25 mins followed by subsequent addition of oligomycin A after 50 mins followed by 2-DG addition after 80 mins by seahorse XF24 extracellular flux analyzer assay; format: functional, cell-based
[21] = tested on: A-375; experiment: Cytotoxicity against human A375 cells assessed as reduction in cell viability after 72 hrs by MTT assay; format: functional, cell-based; conditions: A-375, 72 h
[22] = tested on: MCF7; experiment: Induction of metabolic reversal from aerobic glycolysis to oxidative phosphorylation in human MCF7 cells assessed as increase in extracellular acidification rate at 10 uM pretreated for 4 hrs followed by glucose addition after 25 mins followed by subsequent addition of oligomycin A after 50 mins by seahorse XF24 extracellular flux analyzer assay; format: functional, cell-based
[23] = tested on: MCF7; experiment: Induction of apoptosis in human MCF7 cells assessed as necrotic cells at 10 uM after 24 hrs by Annexin V-FITC/propidium iodide staining-based flow cytometric analysis (reference value: 0.10 %); format: functional
[24] = tested on: MCF7; experiment: Induction of mitochondrial dysfunction in human MCF7 cells assessed as cell population with mitochondrial membrane potential collapse at 10 uM after 24 hrs by JC1 staining-based FACScalibur flow cytometry analysis (reference value: 2.74 %); format: functional
[25] = tested on: 4T1; experiment: Inhibition of glycolysis in mouse 4T1 cells expressing PDK assessed as reduction in intracellular lactate level at 10 uM after 6 hrs by microplate reader assay; format: functional, cell-based
[26] = tested on: 4T1; experiment: Inhibition of glycolysis in mouse 4T1 cells expressing PDK assessed as reduction in extracellular lactate level at 10 uM after 6 hrs by microplate reader assay; format: functional, cell-based
[27] = tested on: MCF7; experiment: Inhibition of glycolysis in human MCF7 cells assessed as reduction in intracellular lactate level at 10 uM after 6 hrs by microplate reader assay; format: functional, cell-based
[28] = Toxicity in BALB/c nude mouse xenografted with human MCF7 cells assessed as effect on body weight at 30 mg/kg, iv administered every 2 days for 2 weeks measured after 14 days; format: organism-based; conditions: in vivo, 336 h
[29] = tested on: MCF7; experiment: Induction of apoptosis in human MCF7 cells assessed as necrotic cells at 30 uM after 24 hrs by Annexin V-FITC/propidium iodide staining-based flow cytometric analysis (reference value: 0.10 %); format: functional
[30] = tested on: MCF7; experiment: Cytotoxicity against human MCF7 cells assessed as cell death at 30 uM pretreated with Z-VAD-fmk followed by compound addition by MTT assay; format: functional, cell-based
[31] = tested on: MCF7; experiment: Antitumor activity against human MCF7 cells xenografted in BALB/c nude mouse assessed as tumor growth inhibition at 30 mg/kg, iv administered every two days for two weeks measured after 14 days; format: functional, organism-based
[32] = tested on: 4T1; experiment: Inhibition of glycolysis in mouse 4T1 cells expressing PDK assessed as reduction in extracellular lactate level at 30 uM after 6 hrs by microplate reader assay; format: functional, cell-based
[33] = tested on: MCF7; experiment: Induction of apoptosis in human MCF7 cells assessed as late apoptotic cells at 30 uM after 24 hrs by Annexin V-FITC/propidium iodide staining-based flow cytometric analysis (reference value: 2.97 %); format: functional
[34] = tested on: MCF7; experiment: Induction of metabolic reversal from aerobic glycolysis to oxidative phosphorylation in human MCF7 cells assessed as decline in extracellular acidification rate at 30 uM pretreated for 4 hrs followed by glucose addition after 25 mins followed by subsequent addition of oligomycin A after 50 mins followed by 2-DG addition after 80 mins by seahorse XF24 extracellular flux analyzer assay; format: functional, cell-based
[35] = Toxicity in BALB/c nude mouse xenografted with human MCF7 cells assessed as mouse death at 30 mg/kg, iv administered every 2 days for 2 weeks measured after 14 days; format: organism-based; conditions: in vivo, 336 h
[36] = tested on: MCF7; experiment: Induction of mitochondrial dysfunction in human MCF7 cells assessed as cell population with intact mitochondrial membrane potential at 30 uM after 24 hrs by JC1 staining-based FACScalibur flow cytometry analysis (reference value: 97%); format: functional
[37] = tested on: MCF7; experiment: Induction of metabolic reversal from aerobic glycolysis to oxidative phosphorylation in human MCF7 cells assessed as increase in extracellular acidification rate at 30 uM pretreated for 4 hrs followed by glucose addition after 25 mins followed by subsequent addition of oligomycin A after 50 mins by seahorse XF24 extracellular flux analyzer assay; format: functional, cell-based
[38] = tested on: MCF7; experiment: Inhibition of glycolysis in human MCF7 cells assessed as reduction in extracellular lactate level at 30 uM after 6 hrs by microplate reader assay; format: functional, cell-based
[39] = tested on: MCF7; experiment: Induction of apoptosis in human MCF7 cells assessed as viable cells at 30 uM after 24 hrs by Annexin V-FITC/propidium iodide staining-based flow cytometric analysis (reference value: 93.39 %); format: functional; conditions: MCF7, 24 h, read-out: Activity
[40] = tested on: MCF7; experiment: Downregulation of PDK expression in human MCF7 cells at 2.5 to 10 uM after 48 hrs by Western blot analysis; format: functional, cell-based
[41] = tested on: 4T1; experiment: Inhibition of glycolysis in mouse 4T1 cells expressing PDK assessed as reduction in intracellular lactate level at 30 uM after 6 hrs by microplate reader assay; format: functional, cell-based
[42] = tested on: MCF7; experiment: Induction of mitochondrial dysfunction in human MCF7 cells assessed as cell population with mitochondrial membrane potential collapse at 30 uM after 24 hrs by JC1 staining-based FACScalibur flow cytometry analysis (reference value: 2.74 %); format: functional
[43] = tested on: MCF7; experiment: Inhibition of glycolysis in human MCF7 cells assessed as reduction in intracellular lactate level at 30 uM after 6 hrs by microplate reader assay; format: functional, cell-based
[44] = tested on: MCF7; experiment: Induction of metabolic reversal from aerobic glycolysis to oxidative phosphorylation in human MCF7 cells assessed as […] at 30 uM pretreated for 4 hrs followed by glucose addition after 25 mins by seahorse XF24 extracellular flux analyzer assay; format: functional, cell-based
[45] = tested on: MCF7; experiment: Induction of apoptosis in human MCF7 cells assessed as early apoptotic cells at 30 uM after 24 hrs by Annexin V-FITC/propidium iodide staining-based flow cytometric analysis (reference value: 3.53 %); format: functional
[46] = tested on: MCF7; experiment: Induction of metabolic reversal from aerobic glycolysis to oxidative phosphorylation in human MCF7 cells assessed as […] at 30 uM pretreated for 6 hrs followed by oligomycin A addition after 25 mins followed by subsequent addition of FCCP after 50 mins followed by antimycin/rotenone addition after 80 mins by seahorse XF24 extracellular flux analyzer assay; format: functional, cell-based
[47] = tested on: MCF7; experiment: Induction of ROS generation in human MCF7 cells assessed as ROS level at 30 uM after 24 hrs by DCFDA-fluorescence based flow cytometry (reference value: 6.57 %); format: functional

CC1(C)CC[C@]2(C(=O)O)CC[C@]3(C)C(=CC[C@@H]4[C@@]5(C)CC[C@H](O[C@@H]6O[C@H](CO[C@@H]7OC[C@H](O)[C@H](O)[C@H]7O)[C@@H](O)[C@H](O)[C@H]6NC(=O)CCl)C(C)(C)[C@@H]5CC[C@]43C)[C@@H]2C1
inhibition [1]: inactive

CC(=O)N[C@H]1[C@H](O[C@H]2CC[C@]3(C)[C@H]4CC=C5[C@@H]6CC(C)(C)CC[C@]6(C(=O)O)CC[C@@]5(C)[C@]4(C)CC[C@H]3C2(C)C)O[C@H](CO[C@@H]2OC[C@H](O)[C@H](O)[C@H]2O)[C@@H](O)[C@@H]1O
pIC50 [2]: 4.48 | Activity [3]: 26.43% | Activity [4]: 72.69% | pIC50 [5]: 4.79 | pIC50 [6]: 4.43 | pIC50 [7]: 5.24 | Activity [8]: inactive | Activity [9]: 18.5% | Activity [10]: Non-Toxic | pIC50 [11]: 4.69 | pIC50 [12]: 4.67 | viability at 10 µM [13]: 70.4% | Activity [14]: 9.07% | Activity [15]: Active | Activity [16]: Active | inhibition [17]: inactive | Activity [18]: Non-Toxic | Activity [19]: Active | Activity [20]: Active | inhibition [1]: inactive | pIC50 [21]: 5.26 | Activity [22]: Active | Activity [23]: 2.07% | Activity [24]: 25.86% | inhibition [25]: inactive | inhibition [26]: inactive | inhibition [27]: inactive

O=c1[nH]cc(F)c(=O)[nH]1 [FLUOROURACIL]
pIC50 [2]: 4.53 | pIC50 [5]: 4.55 | pIC50 [6]: 4.56 | pIC50 [7]: 4.68 | Activity [10]: Non-Toxic | pIC50 [12]: 4.58 | Activity [16]: Active | Activity [18]: Non-Toxic

O=C([O-])C(Cl)Cl.[Na+] [SODIUM DICHLOROACETATE]
pIC50 [2]: < 4.00 | pIC50 [5]: < 4.00 | Activity [28]: Non-Toxic | pIC50 [6]: < 4.00 | Activity [29]: 1.67% | Activity [30]: inactive | Activity [31]: Active | pIC50 [7]: < 4.00 | inhibition [32]: inactive | pIC50 [11]: < 4.00 | pIC50 [12]: < 4.00 | Activity [33]: 5.86% | Activity [34]: Active | Activity [35]: Non-Toxic | Activity [36]: 84.95% | Activity [37]: Active | inhibition [38]: inactive | viability at 30 µM [39]: 79.9% | Activity [40]: inactive | inhibition [41]: inactive | Activity [42]: 14.63% | inhibition [1]: Active | inhibition [43]: inactive | Activity [44]: Active | Activity [45]: 12.57% | Activity [46]: Active | Activity [47]: 15.13%
